Test results published in PubChem BioAssay AID2005 (Sanford-Burnham Center for Chemical Genomics, 2009).
Active and inactive are the calls of the source.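 Rule for the calls: active = plate Z score at or below -3, or inhibition of at least 30% at 20 µM; inactive = the rest.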

Assay: EGFP reporter destabilization counter-screen – F442A EGFP cells, fluorescence, counter-screen for p/CIP destabilizer project, dose response (AID 2005);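 note: cells express EGFP alone from a CMV promoter as a counter screen for p/CIP-EGFP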
Details: F442A EGFP cells, EGFP fluorescence, 16 h, stronger effect = higher value

| SMILES | inhibition (EGFP decrease, at 10 µM) [%] | inhibition (at 20 µM) |
| --- | --- | --- |
| Cc1ccccc1Cn1c(C)nc2ccccc21 | 29.8 | 39% |
| Cc1cc(NC(=O)CSc2ccc3nnc(-c4cccs4)n3n2)no1 | 10.8 | 15.9% (inactive) |
| CCOC(=O)c1ccc(COC(=O)c2nonc2N)cc1 | 4.5 | 21.1% (inactive) |
| CN(c1ccc(C(=O)Nc2ccccn2)cc1)S(=O)(=O)c1ccccc1 | 11.8 | 9% (inactive) |
| CCN(Cc1ccccc1)C(=O)C(=O)c1cn(CC(=O)N2CCCC2)c2ccccc12 | 19.4 | 28.2% (inactive) |
| CN(C)c1ccc(C(=O)Nc2cc(C(F)(F)F)ccc2-n2cncn2)cc1 | 5 | 10.4% (inactive) |
| CC1CCCCC1NC(=O)CN1C(=O)c2ccccc2S1(=O)=O (stereo unspecified) | -11.2 | 13.6% (inactive) |
| O=C(CS(=O)CC(=O)Nc1ccccc1-c1ccccc1)Nc1ccc(F)cc1 (stereo unspecified) | -0.9 | 13.9% (inactive) |
| CC(=O)c1ccc(OCc2cc(C(=O)NC3CCCCC3)no2)cc1 | 15.2 | 9.5% (inactive) |
| CC1CCC(NCc2ccco2)CC1 (stereo unspecified) | -0.9 | 18.9% (inactive) |
| Cc1nc2ccccc2c(=O)n1-c1ccc(Cl)c(Cl)c1 | 12.7 | 12.7% (inactive) |
| CN(C(=O)c1ccc2c(c1)CCN2S(C)(=O)=O)c1ccccc1 | -5.5 | -19.7% (inactive) |
| COc1cccc(CN2CC(C(=O)N(C)Cc3nc(C)cs3)CCC2=O)c1 (stereo unspecified) | -5.9 | 16.2% (inactive) |
| CC(C)[C@H](NC(=O)c1ccc(F)cc1)C(=O)NC1=NCCS1 | 21.6 | 2.2% (inactive) |
| O=C(N/N=C\c1ccc2c(c1)OCO2)c1cncc(Br)c1 | 6.5 | 7.3% (inactive) |
| O=C(Nc1ccc(F)cc1)Nc1nnc(-c2ccco2)s1 | 12 | -2.8% (inactive) |
| N/C(Cc1ccc([N+](=O)[O-])cc1)=N\OC(=O)COc1ccc2ccccc2c1 | 7 | -7.4% (inactive) |
| Cc1nc(-c2ccc(C(=O)Nc3cccc(F)c3)cc2)cs1 | 30.7 | 32.8% |
| NNC(=O)c1ccc(-c2cccc([N+](=O)[O-])c2)o1 | 4.6 | 9.1% (inactive) |
| CC(C)(C)n1nc2c(c1NC(=O)c1cc(Cl)ccc1[N+](=O)[O-])CS(=O)(=O)C2 | 10.5 | 22.6% (inactive) |
| CN(Cc1ccco1)C(=O)C1CCC(=O)N(CCc2cccc(F)c2)C1 (stereo unspecified) | 5.1 | 1.2% (inactive) |
| Cc1cccc(C)c1OCc1cc(C(=O)N2CCCC2c2nonc2C)no1 (stereo unspecified) | 17.2 | 11.5% (inactive) |
| Cc1noc(C)c1CSc1nnc(C)c(=O)[nH]1 | -9.8 | -3.4% (inactive) |
| Cc1nc(NC(=O)CN2CCN(c3ccccc3F)CC2)sc1C(=O)N(C)C | 17 | 24.4% (inactive) |
| CCOC(=O)CSc1nc2ccccc2c(=O)n1CCCCCC(=O)NCc1ccco1 | 8.4 | 5.8% (inactive) |
| Cc1c(NC(=O)CN2C(=O)NC3(CCC(C)CC3)C2=O)c(=O)n(-c2ccccc2)n1C (stereo unspecified) | 5.2 | 0.8% (inactive) |

| SMILES | inhibition (EGFP decrease, at 10 µM) [%] | inhibition (at 20 µM) |
| --- | --- | --- |
| CCOc1ccc(N(CC(=O)N2CCOCC2)S(=O)(=O)c2ccc(Cl)cc2)cc1 | 12.8 | 14.1% (inactive) |
| COc1ccc(OC)c(Nc2ncnc3c2cnn3-c2ccccc2)c1 | 17.8 | 9.9% (inactive) |
| CCOC(=O)N1CCC(NC(=O)C2CCCN(S(=O)(=O)c3cccc4nsnc34)C2)CC1 (stereo unspecified) | 11 | 19% (inactive) |
| Cc1ccc2nc(-c3ccc(S(=O)(=O)N4CCOCC4)cc3)cn2c1 | 14.7 | 6.1% (inactive) |
| CCOc1ccc(NC(=O)CSc2nc3ccccc3c(=O)n2CCNC(C)=O)cc1 | 13.6 | 15% (inactive) |
| COc1ccc2[nH]c(=O)c(-c3noc(-c4ccccc4)n3)cc2c1 | 22.9 | 9.8% (inactive) |
| O=C1c2ccccc2C(=O)C1c1ccc2ccccc2n1 | 1.9 | -11.6% (inactive) |
| O=C(c1ccco1)N1CCN(C(=O)c2ccccc2[N+](=O)[O-])CC1 | 10.5 | 11.1% (inactive) |
| CCN(CC(=O)N1CCOCC1)S(=O)(=O)c1ccccc1 | 7.2 | -27.6% (inactive) |
| Cc1cc(N2C(=O)C(O)=C(C(=O)c3ccco3)C2c2ccc([N+](=O)[O-])cc2)no1 (stereo unspecified) | 39.5 | 4.5% (inactive) |
| COc1ccc(/C=C/C2=NN(Cc3ccccc3)C(=O)CC2)cc1 | 28.1 | 18.7% (inactive) |
| COc1ccc(CNC2CCCCC2)cc1 | 26 | 20.4% (inactive) |
| CCC1=C2CC[C@H]3C(=O)N(C)C(=O)[C@H]3[C@H]2[C@@]2(Cc3ccccc3)C(=NCCOC)OC(=O)N2C1=O | -6.2 | 13.4% (inactive) |
| Cc1sc2nc(COC(=O)c3ccc(N4CCCC(C)C4)c([N+](=O)[O-])c3)[nH]c(=O)c2c1C (stereo unspecified) | 26.5 | 11.2% (inactive) |
| CCC1=[N+]([O-])C(C)(/C(C)=N\O)N(O)C1(C)C (stereo unspecified) | -2.6 | -11% (inactive) |
| O=C(OCC(=O)N1CCC(Cc2ccccc2)CC1)c1ccccc1 | -1.5 | -16% (inactive) |
| CCN(Cc1nc2ccccc2c(=O)[nH]1)Cc1nc2ccsc2c(=O)[nH]1 | 26.2 | 22.6% (inactive) |
| COc1ccc(CNC(=O)C(C)Cc2ccccc2)cc1O (stereo unspecified) | 24.1 | 14.7% (inactive) |
| c1ccc2c3nnc4n(c-3nc2c1)CCCS4 | 17.5 | 23.7% (inactive) |
| COc1cccc(CNC(=O)C2CCN(c3cnccn3)CC2)c1 | -0.8 | 8.6% (inactive) |
| COC(=O)c1[nH]c2c(c1C)C(=O)CC(c1cccs1)C2 (stereo unspecified) | 16.8 | -4.5% (inactive) |
| Cc1cc(C)n(-c2nc3c(c(=O)[nH]c(=O)n3C)n2CC(O)COc2ccccc2)n1 (stereo unspecified) | -7.9 | 7.8% (inactive) |
| CCOc1ccc(-c2nc(-c3ccccc3)no2)cc1OCC | -19.3 | 1.4% (inactive) |
| COc1cc(Cl)c(C)cc1NC(=O)CSc1ccc(NC(C)=O)cc1 | 20.2 | 10.2% (inactive) |
| Cc1noc(C)c1COC(=O)CNC(=O)c1cccc(F)c1 | 4 | -7.3% (inactive) |
| CC(=O)Nc1ccc(S(=O)(=O)Nc2nccs2)cc1 | 21.2 | 15.6% (inactive) |

| SMILES | inhibition (EGFP decrease, at 10 µM) [%] | inhibition (at 20 µM) |
| --- | --- | --- |
| Cc1ccc(S(=O)(=O)NCC(C)NS(=O)(=O)c2ccc(C)cc2)cc1 (stereo unspecified) | 34.7 | -7.7% (inactive) |
| O=C(NCc1ccncc1)c1cc(C(=O)C2CCCCC2)c[nH]1 | -25 | 31.5% |
| O=C(O)[C@@H]1CCCN1c1ncnc2sc3c(c12)CCC3 | 0.9 | 31.1% |
| N#Cc1cn(CC(=O)NCCc2c[nH]c3ccccc23)c2ccccc12 | 10.9 | -0.3% (inactive) |
| CCCC(=O)C1=C(N(C)c2ccccc2)CC(C)(C)CC1=O | 24.9 | 21.6% (inactive) |
| C[C@@H](C(=O)N1CCN(C(=O)OC(C)(C)C)CC1)n1cc(-c2cn([C@@H](C)C(=O)N3CCN(C(=O)OC(C)(C)C)CC3)nn2)nn1 | 38.2 | 25.3% (inactive) |
| COC(=O)CS(=O)(=O)c1cccc2cccnc12 | 38.4 | 19.7% (inactive) |
| CCc1ccc(NC(=S)N2CCC(NC(=O)c3ccccc3OC)CC2)cc1 | -7.8 | 5.4% (inactive) |
| Cc1ccc(S(=O)(=O)CCSc2nc(C)cc(C(F)(F)F)c2C#N)cc1 | -55.8 | -128% (inactive) |
| CN1CCN(C(=O)c2cccc(S(=O)(=O)N3CCCCC3)c2)CC1 | 10.5 | 20.5% (inactive) |
| CS(=O)(=O)Nc1ccccc1C(=O)Nc1cc(Cl)cc(Cl)c1 | 19.6 | -18.3% (inactive) |
| CCN(CC)C(=O)c1oc2ccc(S(=O)(=O)N3CC(C)CC(C)C3)cc2c1C (stereo unspecified) | 29.3 | 49.5% |
| Cc1c(N=NC2=C(O)CCCC2=O)c(=O)n(-c2ccccc2)n1C | 6.5 | 21.3% (inactive) |
| CC(C)=CC(=O)Nc1ccccc1Br | 26.1 | 12.9% (inactive) |
| CCC1(C)Cc2c(c(=O)n(-c3ccccc3)c3ncnc(N)c23)CO1 (stereo unspecified) | 4.6 | -38.9% (inactive) |
| CC1CC(C)CN(c2ccc(NS(=O)(=O)c3ccccc3)cc2C(=O)O)C1 (stereo unspecified) | 9.8 | 2.9% (inactive) |
| Cc1ccc(NC(=S)NC(NC(=O)c2ccco2)C(Cl)(Cl)Cl)cc1 (stereo unspecified) | 6.3 | 31.9% |
| Cc1nc(SCC(=O)Nc2cc(C)on2)c2c(=O)n(C)c(=O)n(C)c2n1 | 10 | 6.6% (inactive) |
| CCOc1ccc(C(=O)N2CCc3cc(OC)c(OC)cc3C2)cc1OCC | 9.7 | 4.7% (inactive) |
| C=CCN1C(=O)/C(=C2/Sc3ccccc3N2C)SC1=Nc1ccccc1C | 1.3 | 8.6% (inactive) |
| Nc1ccc(C(=O)N2N=C(c3ccccc3)CC2(O)C(F)(F)F)cc1 (stereo unspecified) | 28.6 | 4.3% (inactive) |
| NC(=O)c1cccn(Cc2ccc(C(F)(F)F)cc2)c1=O | 6.5 | 5.4% (inactive) |
| CCCc1sc(N/N=C/c2ccccn2)nc1-c1ccc(F)cc1 | 20.3 | 20.4% (inactive) |
| CC(=O)NCCNC(=O)c1ccc(CSc2nc3ccccc3s2)cc1 | 15.9 | 16.6% (inactive) |
| CC(=O)N1CCN(C(=O)CCCNC(=O)c2ccc(Cl)cc2)CC1 | 21 | -1.6% (inactive) |
| O=S(=O)(NCC1CCCO1)c1cccc(C(F)(F)F)c1 (stereo unspecified) | 7.7 | 11.7% (inactive) |
